Patent US10759843B2, “Method and pharmaceutical composition for use in the treatment of cancer” (priority 2012, dated 2020)
Non-standard residues stand in square brackets, D forms with d. Residues, ends and D or L forms follow the SMILES beside them.

Legend:
[1] = test system: B cells isolated from CLL patients; assay: PCD (phosphatidylserine exposure, Annexin-V-FITC, flow cytometry) in B cells from CLL patients; format: cell-based, human
Source text: (§1) After authorized consent forms fresh blood samples will be collected from CLL patients diagnosed according to classical morphological and immunophenotypic criteria at Pitié-Salpêtrière Hospital (Service d'Hématologie Biologique). Normal B lymphocytes will be obtained from EFS (Etablisement Français du Sang). The Institutional Ethics Committee at Pitie-Salpetriere Hospital approved the present study. Mononuclear cells were purified from blood samples using a standard Ficoll-Hypaque gradient, and B cells were positively or negatively selected by magnetic beads coupled to anti-CD19 monoclonal antibody (positive selection) or to anti-CD16, CD3, and CD14 monoclonal antibodies (negative depletion) (Miltenyi Biotech). No changes were found in the cell death response of positively or negatively selected cells. Purified B-lymphocytes were cultured in complete medium (RPMI 1640 medium supplemented with 10% fetal calf serum, 2 mM L-glutamine, and 100 U/ml penicillin-streptomycin). Unless specified, reagents were from Sigma-Aldrich.
To induce cell death B-lymphocytes were cultured 1 h with the TSP-1 derived peptide 4N1K (300 μM; sequence KRFYVVMWKK, SEQ ID NO:1), the negative control peptide 4NGG (300 μM; sequence KRFYGGMWKK, SEQ ID NO:2), the newly developed peptide PKHB1 (150 μM; sequence (D)K-R-F-Y-[…]-M-W-(D)K) (formula I) or an anti-CD47 mAb (in soluble conditions or in immobilized precoated plates; 5 μg/ml; clone B6H12). Alternatively, B-cells were pre-treated for 30 min before the induction of cell death with the calcium chelator BAPTA-AM (20 μM), the caspase-inhibitor Z-VAD.fmk (50 μM).
(§2) We used Annexin V-FITC (BD Biosciences) for the assessment of phosphatidylserine (PS) exposure. Data analysis was carried out in a FACSCanto II (BD Biosciences) on the total cell population (10,000 cells). Data were analyzed using FlowJo software (TreeStar).

normal B-lymphocytes = assay: PCD (Annexin-V-FITC) in normal B-lymphocytes; format: cell-based, human
Source text: as §1, with “Sigma-Aldrich. […]” for “Sigma-Aldrich.”
(§3) We used Annexin V-FITC (BD Biosciences) for the assessment of phosphatidylserine (PS) exposure. […] Data were analyzed using FlowJo software (TreeStar).

[2] = test system: CD19^+/CD5^− (residual B-cells); assay: Cell death in residual B-cells of CLL patients (flow cytometry); format: cell-based, human; details: n=8 patients (FIG. 6C)
Experimental: FIG. 6A-D. FIG. 6(A) B cells isolated from CLL patients were left untreated (control) or cultured 1 h in the presence of 4N1K or the 4N1K-derivative peptide PKHB-1 at the indicated concentration. The percentage of cells that expose phosphatidylserine (measured with Annexin-V-FITC) was recorded and expressed as a plot. Data are the means of eight independent experiments. FIG. 6(B) In a similar experiment B-lymphocytes from 14 different CLL patients, including individuals with unmutated IGHV, complex karyotype and dysfunctional TP53, were left untreated (control) or cultured 1 h in the presence of 4N1K (300 μM) or the 4N1K-derivative peptide PKHB-1 (150 μM). PCD was measured by Annexin-V-FITC labelling in a flow cytometer. FIG. 6(C) Cell death was determined as described in A in 4N1K or PKHB1-treated CD19^+/CD5^− (residual B-cells) and CD19^+/CD5^+ B-lymphocytes (CLL cells) identified by flow cytometry from each CLL patient. Data are presented as the mean±s.d. (n=8 patients). FIG. 6(D) Cell death was measured by Annexin V-positive staining in 4N1K or PKHB1-treated CLL cells pre-incubated or not with the intracellular calcium chelator BAPTA-AM. Data are presented as the mean±S.D. (n=10 patients).
as §3

MEC-1 cells = assay: Localized CLL xenograft model (MEC-1 cells subcutaneously in NSG mice); format: in vivo; details: 400 μg intraperitoneally three times per week
Experimental: 3×10^6 MEC-1 cells were injected subcutaneously into NOD scid gamma (NSG) mice (Charles River). When the tumor volume reached 0.1 cm^3, mice were injected intraperitoneally three times per week with 4NIK or PKHB1 (400 μg in 200 μl PBS). Tumor size was measured every 2-3 days with a calliper and tumor volume, calculated using the formula (length×width^2)/2, was expressed as mm^3. Alternatively, at the end of treatment mice were injected into the sinus retro-orbital with XenoLight RediJect 2-DG-750 Probe (Caliper) to visualize tumor cell glucose uptake, which reflects cell proliferation. Fluorescence was measured by In vivo imaging system FX Pro (Kodak) and pictures were analysed with the Carestream MI software.

[3] = Peptide stability in human serum, HPLC; format: in vitro ADME
Experimental: FIG. 8: 4N1K and PKHB1 peptides stability were evaluated in human serum at 37° C. for 6 h. The relative concentrations of the remaining soluble peptides were analyzed by HPLC, by the integration of the absorbance at 220 nm as a function of retention time.

cancer cell lines = assay: PCD induction in cancer cell lines (whole panel of Table 1); format: cell-based; details: cancer cell lines of Table 1, Annexin V labeling
Experimental: as §2

primary cancer cells = assay: PCD induction in primary cancer cells (whole panel of Table 2); format: cell-based; details: primary cancer cells (Table 2)

| Compound | efficiency compared with 4N1K ([1]; B cells isolated from CLL patients, 1 h, indicated concentrations (FIG. 6A)) | effect of pre-treatment with calcium chelator BAPTA-AM on peptide-mediated PCD ([1]; BAPTA-AM 20 μM before PCD induction (FIG. 5, FIG. 6D)) | cell death of CD19^+/CD5^+ tumor cells ([1]; CD19^+/CD5^+ CLL cells, n=8 patients (FIG. 6C)) | cytotoxicity in normal B-lymphocytes (normal B-lymphocytes) | cell death of residual CD19^+/CD5^− B-lymphocytes [2] | tumor growth compared to control mice (MEC-1 cells; NSG mice with MEC-1 tumors (FIG. 7)) | tumor glucose uptake (2-DG) compared to control mice (MEC-1 cells; NSG mice with MEC-1 tumors (FIG. 7C)) | time over which stable in human serum ([3]; 37° C. (FIG. 8)) [h] | degradation in human serum ([3]; 37° C., 6 h, HPLC 220 nm (FIG. 8)) | cell death / caspase-independent PCD induction (in words) (cancer cell lines) | caspase-independent PCD induction (in words) (primary cancer cells) | PCD induction in CLL primary cells (in words) ([1]; soluble peptide or mAb (FIG. 1)) |
| --- | --- | --- | --- | --- | --- | --- | --- | --- | --- | --- | --- | --- |
| CSCC[C@H](NC(=O)[C@@H](NC(=O)[C@@H](NC(=O)[C@H](Cc1ccc(O)cc1)NC(=O)[C@H](Cc1ccccc1)NC(=O)[C@H](CCCNC(=N)N)NC(=O)[C@@H](N)CCCCN)C(C)C)C(C)C)C(=O)N[C@@H](Cc1c[nH]c2ccccc12)C(=O)N[C@@H](CCCCN)C(=O)N[C@H](CCCCN)C(=O)O [PKHB1, (D)K-R-F-Y-V-V-M-W-K-(D)] (H-KRFYVVMWK[dK]-OH) | better efficiency than the 4N1K peptide | significantly decreased | significantly killed | not in normal B-lymphocytes | resistant | reduction | reduction | ≥ 6 | not degradated | – | – | – |
| KRFYGGMWKK [4NGG, negative soluble control peptide, 4N1K mutated in two amino acids, reference compound] | – | – | – | – | – | – | – | – | – | inefficient | inefficient | unable to induce PCD |
